Measured values published in patent US11578079B2, “SUMO inhibitor compounds and uses thereof” (CITY OF HOPE, priority 2018, dated 2023).

Molecular target: T1, SUMO (Homo sapiens, UniProt Q9UBT2)
T1 sequence (Q9UBT2 1-640): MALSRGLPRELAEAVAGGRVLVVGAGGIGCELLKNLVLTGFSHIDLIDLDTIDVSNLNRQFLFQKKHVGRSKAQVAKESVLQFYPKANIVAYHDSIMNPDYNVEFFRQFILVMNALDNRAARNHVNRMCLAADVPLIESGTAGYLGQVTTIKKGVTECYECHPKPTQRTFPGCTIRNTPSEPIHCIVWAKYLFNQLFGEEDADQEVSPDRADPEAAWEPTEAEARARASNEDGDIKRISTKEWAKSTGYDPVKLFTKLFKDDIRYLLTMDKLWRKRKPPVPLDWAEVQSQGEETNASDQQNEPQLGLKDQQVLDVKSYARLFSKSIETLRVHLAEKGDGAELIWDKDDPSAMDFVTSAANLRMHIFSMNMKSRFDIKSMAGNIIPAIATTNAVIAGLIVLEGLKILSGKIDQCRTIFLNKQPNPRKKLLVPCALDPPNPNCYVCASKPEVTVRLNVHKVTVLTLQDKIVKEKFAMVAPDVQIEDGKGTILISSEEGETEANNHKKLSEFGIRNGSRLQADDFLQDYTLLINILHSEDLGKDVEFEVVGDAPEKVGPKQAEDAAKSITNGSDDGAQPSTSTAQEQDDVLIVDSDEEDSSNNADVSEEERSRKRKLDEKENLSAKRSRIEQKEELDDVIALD
T1 sequence (Q9UBE0 1-346 partner): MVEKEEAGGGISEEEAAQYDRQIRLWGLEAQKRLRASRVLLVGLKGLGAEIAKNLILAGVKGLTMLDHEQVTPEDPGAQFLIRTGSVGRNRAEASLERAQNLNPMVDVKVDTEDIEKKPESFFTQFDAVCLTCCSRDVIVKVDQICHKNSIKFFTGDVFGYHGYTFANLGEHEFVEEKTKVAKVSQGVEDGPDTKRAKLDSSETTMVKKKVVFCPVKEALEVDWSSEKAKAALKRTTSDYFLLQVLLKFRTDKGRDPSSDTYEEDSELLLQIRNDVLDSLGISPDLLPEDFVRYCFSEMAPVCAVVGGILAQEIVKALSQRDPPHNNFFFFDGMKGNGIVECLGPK
Assay: SUMO activity (Table I, biological activities)
Format: biochemical
Set-up: key: + (less active); ++ (active); +++ (most active)

SUMO | SMILES
+ | COC(=O)C1=C(C(=O)NC2CCN(C(=O)OC(C)(C)C)CC2)C2C=CC1(C(Cc1ccccc1)Nc1ccccc1)O2 (centres unmarked) [Compound 198]
++ | COC(=O)C1=C(C(=O)OC)C2(C(Nc3ccccc3)c3ccc4nc(Cl)ccc4c3)C=CC1O2 (centres unmarked) [Compound 675]
++ | CCOc1ccc(CC(Nc2ccccc2)C23C=CC(O2)C(C(=O)OC)=C3C(=O)OC)cc1 (centres unmarked) [Compound 644]
++ | CNC(=O)C1=C(C(=O)OC)C2(C(Cc3ccccc3)Nc3ccccc3)C=CC1(C)O2 (centres unmarked) [Compound 293]
+++ | CCCCC(Nc1ccccc1)C12C=CC(O1)C(C(=O)OC)=C2C(=O)OC (centres unmarked) [Compound 210]
+++ | COC(=O)C1=C(C(=O)OC)C2(C(Cc3ccc(C)cc3)Nc3ccccc3)C=CC1O2 (centres unmarked) [Compound 627]
+ | COC(=O)C1=C(C(=O)OC)C2(C(Cc3ccccc3)Oc3cccnc3)C=CC1O2 (centres unmarked) [Compound 482]
+ | COC(=O)C1=C(C(=O)OC)C2(C(Cc3ccccc3)N(C)c3c(F)cccc3F)C=CC1O2 (centres unmarked) [Compound 237]
++ | COC(=O)C1=C(C(=O)OC)C2(C(Cc3ccccc3Br)Nc3ccccc3)C=CC1O2 (centres unmarked) [Compound 667]
+ | CC(C)NC(=O)C1=C(C(=O)NC(C)C)C2(C(Cc3ccccc3)Nc3ccccc3)C=CC1O2 (centres unmarked) [Compound 159]
++ | COC(=O)C1=C(C(=O)OC)C2(C(Nc3ccccc3)c3ccc4ccc(OC)cc4c3)C=CC1O2 (centres unmarked) [Compound 654]
++ | COC(=O)C1=C(C(=O)OC)C2(C(Cc3ccccc3C(F)(F)F)Nc3ccccc3)C=CC1O2 (centres unmarked) [Compound 658]
++ | COC(=O)C1=C(C(=O)Nc2ccc(OC)cc2)C2C=CC1(C(Cc1ccccc1)Nc1ccccc1)O2 (centres unmarked) [Compound 194]
++ | COC(=O)C1=C(C(=O)OC)C2(C(Cc3ccc(OCC(C)C)cc3)Nc3ccccc3)C=CC1O2 (centres unmarked) [Compound 651]
++ | COC(=O)C1=C(C(=O)NCCNC(=O)OC(C)(C)C)C2C=CC1(C(Cc1ccccc1)Nc1ccc(F)cc1)O2 (centres unmarked) [Compound 539]
++ | COC(=O)C1=C(C(=O)OC)C2(C(Cc3ccc(C4CCOCC4)cc3)Nc3ccccc3)C=CC1O2 (centres unmarked) [Compound 681]
+ | NC(=O)C1=C(C(N)=O)C2(C(Cc3ccccc3)Nc3ccccc3)C=CC1O2 (centres unmarked) [Compound 202]
++ | COC(=O)C1=C(C(=O)OC)C2(C(Cc3ccccc3C)Nc3ccccc3)C=CC1O2 (centres unmarked) [Compound 648]
++ | CCOC(=O)C1=C(C(=O)OCC)C2(C(Cc3ccccc3)Nc3c(F)cccc3F)C=CC1O2 (centres unmarked) [Compound 230]
++ | COC(=O)C1=C(C(=O)Nc2ccn(C)n2)C2C=CC1(C(Cc1ccccc1)Nc1ccccc1)O2 (centres unmarked) [Compound 197]
++ | COC(=O)C1=C(C(=O)OC)C2(C(Cc3cccc(Cl)c3)Nc3ccccc3)C=CC1O2 (centres unmarked) [Compound 663]
+ | CCOc1cccc(NC(Cc2ccccc2)C23C=CC(O2)C(C(=O)O)=C3C(=O)OC)c1 (centres unmarked) [Compound 246]
++ | COC(=O)C1=C(C(=O)OC)C2(C(Cc3ccccc3Cl)Nc3ccc(F)cc3)C=CC1O2 (centres unmarked) [Compound 673]
++ | CCOC(=O)C1=C(C(=O)OCC)C2(C(Cc3ccccc3)Nc3ccccc3)C=CC1(CO)O2 (centres unmarked) [Compound 265]
+++ | COC(=O)C1=C(C(=O)NC2CCOCC2)C2C=CC1(C(Cc1ccccc1)Nc1ccccc1)O2 (centres unmarked) [Compound 275]
++ | COC(=O)C1=C(C(=O)OC)C2(C(Nc3ccccc3)c3cc4ccccc4nc3Cl)C=CC1O2 (centres unmarked) [Compound 671]

SUMO | SMILES
+ | CCCCC(Nc1cc(F)cc(F)c1)C12C=CC(O1)C(C(=O)NCCN(C)C)=C2C(=O)OC (centres unmarked) [Compound 397]
++ | COC(=O)C1=C(C(=O)Nc2ccc(OC)nc2)C2C=CC1(C(Cc1ccccc1)Nc1ccccc1)O2 (centres unmarked) [Compound 199]
+++ | COC(=O)C1=C(C(=O)OC)C2(C(Cc3ccccc3Cl)Nc3ccccc3)C=CC1O2 (centres unmarked) [Compound 640]
++ | COC(=O)C1=C(C(=O)Nc2ccc(C)c(F)c2)C2C=CC1(C(Cc1ccccc1)Nc1ccc(F)cc1)O2 (centres unmarked) [Compound 346]
++ | COC(=O)C1=C(C(=O)OC)C2(C(Cc3ccccc3)N(C)c3ccccc3)C=CC1O2 (centres unmarked) [Compound 236]
+ | CCNC(=O)C1=C(C(=O)NCC)C2(C(Cc3ccccc3Cl)Nc3ccccc3)C=CC1O2 (centres unmarked) [Compound 662]
+ | COC(=O)C1=C(C(=O)Nc2ccc(OC(F)(F)F)cc2)C2C=CC1(C(Cc1ccccc1)Nc1ccccc1)O2 (centres unmarked) [Compound 196]
++ | CCOc1cccc(NC(Cc2ccccc2)C23C=CC(O2)C(C(=O)OC)=C3C(=O)OC)c1 (centres unmarked) [Compound 669]
++ | C#CCNC(=O)C1=C(C(=O)OC)C2(C(Cc3ccccc3)Nc3ccccc3)C=CC1O2 (centres unmarked) [Compound 155]
+ | COC(=O)C1=C(C(=O)N(C)C)C2C=CC1(C(Cc1ccccc1)Nc1ccccc1)O2 (centres unmarked) [Compound 154]
++ | COC(=O)C1=C(C(=O)Nc2ccc(N3CCN(C)CC3)cc2)C2C=CC1(C(Cc1ccccc1)Nc1ccccc1)O2 (centres unmarked) [Compound 291]
+ | COC(=O)C1=C(C(=O)Nc2ccc(C)c(F)c2)C2CCC1(C(Cc1ccccc1Cl)Nc1ccccc1)O2 (centres unmarked) [Compound 692]
+++ | COC(=O)C1=C(C(=O)OC)C2(C(Cc3ccc(F)cc3)Nc3cc(F)cc(Cl)c3)C=CC1O2 (centres unmarked) [Compound 451]
+ | COC(=O)C1=C(C(=O)NC2CCN(C(=O)OC(C)(C)C)CC2)C2C=CC1(C(Cc1ccccc1)Nc1cc(F)cc(F)c1)O2 (centres unmarked) [Compound 255]
++ | COC(=O)C1=C(C(=O)NCCN(C)C)C2CCC1(C(Cc1ccccc1Cl)Nc1ccccc1)O2 (centres unmarked) [Compound 691]
++ | COC(=O)C1=C(C(=O)OC)C2(C(Cc3ccccc3Cl)Nc3cccc(Oc4ccccc4)c3)C=CC1O2 (centres unmarked) [Compound 672]
+++ | COC(=O)C1=C(C(=O)OC)C2(C(Cc3ccc(OC)cc3)Nc3ccccc3)C=CC1O2 (centres unmarked) [Compound 633]
++ | COC(=O)C1=C(C(=O)OC)C2(C(Cc3ccccc3Cl)Nc3cccc(OCc4ccccc4)c3)C=CC1O2 (centres unmarked) [Compound 674]
+ | COC(=O)C1=C(C(=O)OC)C2(C(Cc3ccccc3Cl)Nc3ccc(Oc4ccccc4)cc3)C=CC1O2 (centres unmarked) [Compound 678]
+++ | COC(=O)C1=C(C(=O)NCCN2CCOCC2)C2C=CC1(C(Cc1ccccc1)Nc1ccccc1)O2 (centres unmarked) [Compound 222]
++ | COC(=O)C1=C(C(=O)OC)C2(C(Cc3ccc(OC(C)C)cc3)Nc3ccccc3)C=CC1O2 (centres unmarked) [Compound 650]
+++ | COC(=O)C1=C(C(=O)OC)C2(C(Cc3ccc4ccccc4c3)Nc3ccccc3)C=CC1O2 (centres unmarked) [Compound 630]
+ | Cc1ccc(S(=O)(=O)C2=CC3(C(Cc4ccccc4)Nc4ccccc4)C=CC2(C)O3)cc1 (centres unmarked) [Compound 532]
++ | COC(=O)C1=C(C(=O)OC)C2(C(Cc3ccccc3)Nc3c(F)cccc3F)C=CC1O2 (centres unmarked) [Compound 228]
+ | COC(=O)C1=C(C(=O)OC)C2(C(Nc3ccccc3)c3ccc(CN4CCOCC4)cc3)C=CC1O2 (centres unmarked) [Compound 413]
++ | COC(=O)C1=C(C(=O)OC)C2(C(Nc3ccccc3)c3ccc4cc(OC)ccc4c3)C=CC1O2 (centres unmarked) [Compound 653]

SMILES | SUMO
COC(=O)C1=C(C(=O)OC)C2(C(Cc3ccccc3)Nc3ccccc3)C=CC1(c1ccccc1)O2 (centres unmarked) [Compound 696] | +
